Test results as given in patent US7741354B2, “Inhibitors of glutaminyl cyclase” (Probiodrug AG, priority 2006, dated 2010).
Like-named read-outs stand apart in the source and are kept apart here.

Molecular target: hQC (Homo sapiens, UniProt Q16769)
Experiment: Fluorometric (fluorescent) assay of hQC inhibition, IC50
Format: biochemical
Settings: read-out: IC50
How it was run: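 QC activity followed at 30° C via pyroglutamyl aminopeptidase-coupled release of fluorophore, using either H-Gln-βNA (0.2 mM; ex/em 320/410 nm; 0.2 M Tris/HCl pH 8.0, 20 mM EDTA) or H-Gln-AMC (ex/em 380/460 nm; 0.05 M Tris/HCl pH 8.0, 5 mM EDTA).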

Sequence of hQC (Q16769 29-361): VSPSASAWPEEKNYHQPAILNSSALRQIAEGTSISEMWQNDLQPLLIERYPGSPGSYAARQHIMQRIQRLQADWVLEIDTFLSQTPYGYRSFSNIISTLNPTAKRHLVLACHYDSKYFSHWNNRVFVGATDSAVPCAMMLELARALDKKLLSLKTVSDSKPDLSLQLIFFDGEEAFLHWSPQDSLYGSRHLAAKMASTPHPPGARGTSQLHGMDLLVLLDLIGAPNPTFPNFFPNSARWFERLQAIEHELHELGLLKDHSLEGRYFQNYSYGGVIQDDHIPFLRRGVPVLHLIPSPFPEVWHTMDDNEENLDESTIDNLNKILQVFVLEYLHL

| Structure (SMILES) | IC50 | IC50 (hQC inhibition) |
| --- | --- | --- |
| CC(CC(Nc1ccc2[nH]cnc2c1)c1nnnn1C(C)(C)C)c1ccccc1 (stereo not shown) [compound 106, (1H-Benzoimidazol-5-yl)-[1-(1-tert-butyl-1H-tetrazol-5-yl)-3-phenyl-butyl]-amine] | 6.7 µM |  |
| Fc1cc(C(Nc2ccc3[nH]cnc3c2)c2nnnn2C2CCCCC2)ccc1Cl (stereo not shown) [compound 107, (1H-Benzoimidazol-5-yl)-[(4-chloro-3-fluoro-phenyl)-(1-cyclohexyl-1H-tetrazol-5-yl)-methyl]-amine] | 4.9 µM |  |
| CN(C)c1ccc(C(Nc2ccc3[nH]cnc3c2)c2nnnn2CC2CCCO2)cc1 (stereo not shown) [compound 108, (1H-Benzoimidazol-5-yl)-{(4-dimethylamino-phenyl)-[1-(tetrahydro-furan-2-ylmethyl)-1H-tetrazol-5-yl]-methyl}-amine] | 5.8 µM |  |
| COc1ccc(C(Nc2ccc3[nH]cnc3c2)c2nnnn2CC2CCCO2)cc1Br (stereo not shown) [compound 109, (1H-Benzoimidazol-5-yl)-{(3-bromo-4-methoxy-phenyl)-[1-(tetrahydro-furan-2-ylmethyl)-1H-tetrazol-5-yl]-methyl}-amine] | 1.3 µM |  |
| CCCC(Nc1ccc2[nH]cnc2c1)c1nnnn1Cc1ccccc1 (stereo not shown) [compound 110, (1H-Benzoimidazol-5-yl)-[1-(1-benzyl-1H-tetrazol-5-yl)-butyl]-amine] | 5.8 µM |  |
| Cc1ccc(C(C)CC(Nc2ccc3[nH]cnc3c2)c2nnnn2CC2CCCO2)o1 (stereo not shown) [compound 111, (1H-Benzoimidazol-5-yl)-{3-(5-methyl-furan-2-yl)-1-[1-(tetrahydro-furan-2-ylmethyl)-1H-tetrazol-5-yl]-butyl}-amine] | 5.8 µM |  |
| c1ccc(C(c2ccccc2)n2nnnc2C(Nc2ccc3[nH]cnc3c2)c2ccc3nsnc3c2)cc1 (stereo not shown) [compound 112, [(1-Benzhydryl-1H-tetrazol-5-yl)-benzo[c][1,2,5]thia-diazol-5-yl-methyl]-(1H-benzoimidazol-5-yl)-amine] | 5.8 µM |  |
| CC(Cc1ccc2c(c1)OCO2)C(Nc1ccc2[nH]cnc2c1)c1nnnn1Cc1ccccc1Cl (stereo not shown) [compound 113] | 3.1 µM |  |
| C1=COC(C(Nc2ccc3[nH]cnc3c2)c2nnnn2C2CCCCC2)CC1 (stereo not shown) [compound 114] | 6.7 µM |  |
| CN(C)c1ccc(C(Nc2ccc3[nH]cnc3c2)c2nnnn2Cc2cccnc2)cc1 (stereo not shown) [compound 115, (1H-Benzoimidazol-5-yl)-[(4-dimethylamino-phenyl)-(1-pyridin-3-ylmethyl-1H-tetrazol-5-yl)-methyl]-amine] |  | 5.8 µM |
| CC(Cc1ccc2c(c1)OCO2)C(Nc1ccc2[nH]cnc2c1)c1nnnn1C1CCCCC1 (stereo not shown) [compound 116, [3-Benzo[1,3]dioxol-5-yl-1-(1-cyclohexyl-1H-tetrazol-5-yl)-2-methyl-propyl]-(1H-benzoimidazol-5-yl)-amine] |  | 7.6 µM |
| CC(C)(C)c1ccc(-n2nnnc2C(Nc2ccc3[nH]cnc3c2)c2ccc3nsnc3c2)cc1 (stereo not shown) [compound 117] |  | 4 µM |
| c1nc2cc(NC(c3ccc4c(c3)OCO4)c3nnnn3CC3CCCO3)ccc2[nH]1 (stereo not shown) [compound 118] |  | 6.7 µM |
| CC(C)(C)OC(=O)Cn1nnnc1C(Nc1ccc2[nH]cnc2c1)c1ccc2c(c1)OCO2 (stereo not shown) [compound 119, {5-[Benzo[1,3]dioxol-5-yl-(1H-benzoimidazol-5-ylamino)-methyl]-tetrazol-1-yl}-acetic acid tert-butyl ester] |  | 2.2 µM |
| O=C(Cn1nnnc1C(Nc1ccc2[nH]cnc2c1)c1cccs1)N1CCc2ccccc2C1 (stereo not shown) [compound 120, 2-{5-[(1H-Benzoimidazol-5-ylamino)-thiophen-2-yl-methyl]-tetrazol-1-yl}-1-(3,4-dihydro-1H-isoquinolin-2-yl)-ethanone] |  | 8.5 µM |
| OCc1ccc(C(Nc2ccc3[nH]cnc3c2)c2nnnn2Cc2ccc(Cl)cc2)o1 (stereo not shown) [compound 121, (5-{(1H-Benzoimidazol-5-ylamino)-[1-(4-chloro-benzyl)-1H-tetrazol-5-yl]-methyl}-furan-2-yl)-methanol] |  | 4.9 µM |
| O=c1c(C(Nc2ccc3[nH]cnc3c2)c2nnnn2CCc2cccs2)coc2ccccc12 (stereo not shown) [compound 122, 3-{(1H-Benzoimidazol-5-ylamino)-[1-(2-thiophen-2-yl-ethyl)-1H-tetrazol-5-yl]-methyl}-chromen-4-one] |  | 4.9 µM |
| CC(C)(C)n1nnnc1C(Nc1ccc2[nH]cnc2c1)c1csc2ccccc12 (stereo not shown) [compound 123] |  | 8.5 µM |
| Cc1cc(C)cc(C(Nc2ccc3[nH]cnc3c2)c2nnnn2Cc2ccccc2)c1 (stereo not shown) [compound 124, (1H-Benzoimidazol-5-yl)-[(1-benzyl-1H-tetrazol-5-yl)-(3,5-dimethyl-phenyl)-methyl]-amine] |  | 5.8 µM |

| Structure (SMILES) | IC50 | IC50 (hQC inhibition) |
| --- | --- | --- |
| COc1ccc(C(Nc2ccc3[nH]cnc3c2)c2nnnn2Cc2ccc(Cl)cc2)cc1F (stereo not shown) [compound 125, (1H-Benzoimidazol-5-yl)-[[1-(4-chloro-benzyl)-1H-tetrazol-5-yl]-(3-fluoro-4-methoxy-phenyl)-methyl]-amine] |  | 3.1 µM |
| c1ccc(C(c2ccccc2)n2nnnc2C(Nc2ccc3[nH]cnc3c2)c2cnc3ccccc3c2)cc1 (stereo not shown) [compound 126, [(1-Benzhydryl-1H-tetrazol-5-yl)-quinolin-3-yl-methyl]-(1H-benzoimidazol-5-yl)-amine] |  | 4.9 µM |
| Clc1ccc(C(Nc2ccc3[nH]cnc3c2)c2nnnn2Cc2ccccc2Cl)cc1 (stereo not shown) [compound 127, (1H-Benzoimidazol-5-yl)-[[1-(2-chloro-benzyl)-1H-tetrazol-5-yl]-(4-chloro-phenyl)-methyl]-amine] |  | 3.1 µM |
| COC(=O)c1cccc(C(Nc2ccc3[nH]cnc3c2)c2nnnn2-c2ccc(C(C)(C)C)cc2)c1 (stereo not shown) [compound 128, 3-{(1H-Benzoimidazol-5-ylamino)-[1-(4-tert-butyl-phenyl)-1H-tetrazol-5-yl]-methyl}-benzoic acid methyl ester] |  | 6.7 µM |
| CCc1ccc(C(Nc2ccc3[nH]cnc3c2)c2nnnn2CC2CCCO2)s1 (stereo not shown) [compound 129, (1H-Benzoimidazol-5-yl)-{(5-ethyl-thiophen-2-yl)-[1-(tetrahydro-furan-2-ylmethyl)-1H-tetrazol-5-yl]-methyl}-amine] |  | 8.5 µM |
| CSc1ccc(C(Nc2ccc3[nH]cnc3c2)c2nnnn2CC2COC(C)(C)O2)cc1 (stereo not shown) [compound 130, (1H-Benzoimidazol-5-yl)-[[1-(2,2-dimethyl-[1,3]dioxolan-4-ylmethyl)-1H-tetrazol-5-yl]-(4-methylsulfanyl-phenyl)-methyl]-amine] |  | 7.6 µM |
| Cc1cc(C(Nc2ccc3[nH]cnc3c2)c2nnnn2CC2CCCO2)cc(C)c1O (stereo not shown) [compound 131, 4-{(1H-Benzoimidazol-5-ylamino)-[1-(tetrahydro-furan-2-ylmethyl)-1H-tetrazol-5-yl]-methyl}-2,6-dimethyl-phenol] |  | 6.7 µM |
| CCOC(=O)C1CCCCC1n1nnnc1C(Nc1ccc2[nH]cnc2c1)c1ccc(OC)c(F)c1 (stereo not shown) [compound 132, 2-{5-[(1H-Benzoimidazol-5-ylamino)-(3-fluoro-4-methoxy-phenyl)-methyl]-tetrazol-1-yl}-cyclohexanecar-boxylic acid ethyl ester] |  | 8.5 µM |
| CCc1ccc(C(Nc2ccc3[nH]cnc3c2)c2nnnn2Cc2ccccc2)s1 (stereo not shown) [compound 133, (1H-Benzoimidazol-5-yl)-[(1-benzyl-1H-tetrazol-5-yl)-(5-ethyl-thiophen-2-yl)-methyl]-amine] |  | 3.1 µM |
| c1nc2cc(NC(c3ccc(N4CCCC4)cc3)c3nnnn3CC3CCCO3)ccc2[nH]1 (stereo not shown) [compound 134, (1H-Benzoimidazol-5-yl)-{(4-pyrolidin-1-yl-phenyl)-[1-(tetrahydro-furan-2-ylmethyl)-1H-tetrazol-5-yl]-methyl}-amine] |  | 6.7 µM |
| Clc1ccccc1Cn1nnnc1C(Nc1ccc2[nH]cnc2c1)c1cccnc1 (stereo not shown) [compound 135, (1H-Benzoimidazol-5-yl)-{[1-(2-chloro-benzyl)-1H-tetrazol-5-yl]-pyridin-3-yl-methyl}-amine] |  | 8.5 µM |
| Clc1ccc(Cn2nnnc2C(Nc2ccc3[nH]cnc3c2)c2ccc(Cl)cc2)cc1 (stereo not shown) [compound 136, (1H-Benzoimidazol-5-yl)-[[1-(4-chloro-benzyl)-1H-tetrazol-5-yl]-(4-chloro-phenyl)-methyl]-amine] |  | 4 µM |
| Cc1cc(C)cc(C(Nc2ccc3[nH]cnc3c2)c2nnnn2CC(=O)N2CCc3ccccc3C2)c1 (stereo not shown) [compound 137, 2-{5-[(1H-Benzoimidazol-5-ylamino)-(3,5-dimethyl-phenyl)-methyl]-tetrazol-1-yl}-1-(3,4-dihydro-1H-isoquinolin-2-yl)-ethanone] |  | 4.9 µM |
| CC1(C)OCC(Cn2nnnc2C(Nc2ccc3[nH]cnc3c2)c2ccc3c(c2)OCO3)O1 (stereo not shown) [compound 138, {Benzo[1,3]dioxol-5-yl-[1-(2,2-dimethyl-[1,3]dioxolan-4-ylmethyl)-1H-tetrazol-5-yl]-methyl}-(1H-benzoimidazol-5-yl)-amine] |  | 9.4 µM |
| c1ccc(Oc2ccc(-n3nnnc3C(Nc3ccc4[nH]cnc4c3)c3ccc4c(c3)OCO4)cc2)cc1 (stereo not shown) [compound 139, {Benzo[1,3]dioxol-5-yl-[1-(4-phenoxy-phenyl)-1H-tetrazol-5-yl]-methyl}-(1H-benzoimidazol-5-yl)-amine] |  | 4 µM |
| CSc1ccc(C(Nc2ccc3[nH]cnc3c2)c2nnnn2CC2CCCO2)cc1 (stereo not shown) [compound 140, (1H-Benzoimidazol-5-yl)-{(4-methylsulfanyl-phenyl)-[1-(tetrahydro-furan-2-ylmethyl)-1H-tetrazol-5-yl]-methyl}-amine] |  | 6.7 µM |
| CCCOc1cccc(C(Nc2ccc3[nH]cnc3c2)c2nnnn2CC2CCCO2)c1 (stereo not shown) [compound 141, (1H-Benzoimidazol-5-yl)-{(3-propoxy-phenyl)-[1-(tetrahydro-furan-2-ylmethyl)-1H-tetrazol-5-yl]-methyl}-amine] |  | 4 µM |
| COc1ccc(C(Nc2ccc3[nH]cnc3c2)c2nnnn2Cc2cccnc2)cc1Br (stereo not shown) [compound 142, (1H-Benzoimidazol-5-yl)-[(3-bromo-4-methoxy-phenyl)-(1-pyridin-3-ylmethyl-1H-tetrazol-5-yl)-methyl]-amine] |  | 0.4 µM |
